From patent US20100227887A1 (priority 2009, published 2010)

What was measured:
human mGlu 5a receptor = target: T1, human mGlu 5a receptor (Homo sapiens, UniProt P41594); assay: [3H]MPEP competition binding on membranes of EBNA cells transfected with human mGlu 5a receptor; settings: [3H]MPEP (2 nM) competition, 1 h at 4° C., EBNA cell membranes
T1 construct: expressed in transfected cells; host or cells: EBNA cells (transient transfection); cell membrane homogenates
Method: The pharmacological activity of the compounds was tested using the following method: For binding experiments, cDNA encoding human mGlu 5a receptor was transiently transfected into EBNA cells using a procedure described by Schlaeger and Christensen [Cytotechnology 15:1-13 (1998)]. Cell membrane homogenates were stored at −80° C. until the day of assay where upon they were thawed and resuspended and polytronised in 15 mM Tris-HCl, 120 mM NaCl, 100 mM KCl, 25 mM CaCl2, 25 mM MgCl2 binding buffer at pH 7.4 to a final assay concentration of 20 μg protein/well.
Saturation isotherms were determined by addition of twelve [^3H]MPEP concentrations (0.04-100 nM) to these membranes (in a total volume of 200 μl) for 1 h at 4° C. Competition experiments were performed with a fixed concentration of [^3H]MPEP (2 nM) and IC50 values of test compounds evaluated using 11 concentrations (0.3-10,000 nM). Incubations were performed for 1 h at 4° C.
At the end of the incubation, membranes were filtered onto unifilter (96-well white microplate with bonded GF/C filter preincubated 1 h in 0.1% PEI in wash buffer, Packard Bio-Science, Meriden, Conn.) with a Filtermate 96 harvester (Packard BioScience) and washed 3 times with cold 50 mM Tris-HCl, pH 7.4 buffer. Nonspecific binding was measured in the presence of 10 μM MPEP. The radioactivity on the filter was counted (3 min) on a Packard Top-count microplate scintillation counter with quenching correction after addition of 45 μl of microscint 40 (Canberra Packard S. A., Zürich, Switzerland) and shaking for 20 min.
For binding experiments the Ki values of the compounds tested are given. The Ki value is defined by the following formula: […]
in which the IC50 values are those concentrations of the compounds tested which cause 50% inhibition of the competing radioligand ([^3H]MPEP). L is the concentration of radioligand used in the binding experiment and the Kd value of the radioligand is empirically determined for each batch of membranes prepared.

T1 sequence (P41594 21-1180 isoform P41594-2 limits assumed): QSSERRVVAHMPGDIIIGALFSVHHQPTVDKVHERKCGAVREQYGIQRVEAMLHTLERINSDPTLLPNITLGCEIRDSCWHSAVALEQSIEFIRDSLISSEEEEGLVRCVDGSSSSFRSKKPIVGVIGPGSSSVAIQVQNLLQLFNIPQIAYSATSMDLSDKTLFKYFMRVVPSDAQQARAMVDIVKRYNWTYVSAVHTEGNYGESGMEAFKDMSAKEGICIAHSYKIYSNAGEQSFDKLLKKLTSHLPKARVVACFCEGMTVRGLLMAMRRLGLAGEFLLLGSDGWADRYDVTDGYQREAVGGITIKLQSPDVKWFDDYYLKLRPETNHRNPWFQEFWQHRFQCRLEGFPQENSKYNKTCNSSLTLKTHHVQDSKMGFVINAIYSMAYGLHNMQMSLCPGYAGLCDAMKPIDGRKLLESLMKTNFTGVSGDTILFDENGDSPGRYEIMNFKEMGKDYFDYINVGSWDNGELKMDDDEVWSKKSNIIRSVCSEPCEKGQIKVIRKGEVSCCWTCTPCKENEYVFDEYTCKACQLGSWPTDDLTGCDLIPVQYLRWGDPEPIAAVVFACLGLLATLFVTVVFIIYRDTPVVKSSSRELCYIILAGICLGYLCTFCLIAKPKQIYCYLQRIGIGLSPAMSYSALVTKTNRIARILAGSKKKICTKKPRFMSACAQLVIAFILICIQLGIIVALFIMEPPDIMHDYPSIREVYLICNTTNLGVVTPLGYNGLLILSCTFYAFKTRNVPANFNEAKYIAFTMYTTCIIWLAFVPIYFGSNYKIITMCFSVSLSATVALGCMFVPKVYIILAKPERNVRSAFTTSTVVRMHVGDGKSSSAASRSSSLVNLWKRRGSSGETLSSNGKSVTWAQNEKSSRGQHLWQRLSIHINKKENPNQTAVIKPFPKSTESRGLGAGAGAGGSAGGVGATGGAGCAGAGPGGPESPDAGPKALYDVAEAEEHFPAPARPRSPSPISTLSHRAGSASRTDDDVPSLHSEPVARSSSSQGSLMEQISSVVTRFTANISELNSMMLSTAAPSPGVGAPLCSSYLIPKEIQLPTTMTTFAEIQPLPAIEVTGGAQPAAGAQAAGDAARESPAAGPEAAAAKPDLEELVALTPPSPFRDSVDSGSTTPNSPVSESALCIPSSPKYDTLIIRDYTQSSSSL

Row | melting point [°C] | Ki (human mGlu 5a receptor) [nM] | SMILES
1 | 130.5 | 15 | Cc1cccc(NC(=O)c2cc(Cl)cc(C)n2)n1 [Example 36, 4-Chloro-6-methyl-pyridine-2-carboxylic acid (6-methyl-pyridin-2-yl)-amide]
2 | 174 | 55 | Cc1cc(Cl)cc(C(=O)Nc2cccc(Cl)c2)n1 [Example 37, 4-Chloro-6-methyl-pyridine-2-carboxylic acid (3-chloro-phenyl)-amide]
3 | 204 | 27 | Cc1cc(C#N)cc(C(=O)Nc2ccc(F)c(Cl)c2)n1 [Example 38, 4-Cyano-6-methyl-pyridine-2-carboxylic acid (3-chloro-4-fluoro-phenyl)-amide]
4 | 167 | 44 | N#Cc1cc(CO)nc(C(=O)Nc2cccc(Cl)c2)c1 [Example 40, 4-Cyano-6-hydroxymethyl-pyridine-2-carboxylic acid (3-chloro-phenyl)-amide]
5 | 139 | 9 | Cc1cc(C#N)cc(C(=O)Nc2cccc(F)c2)n1 [Example 41, 4-Cyano-6-methyl-pyridine-2-carboxylic acid (3-fluoro-phenyl)-amide]
6 | 170 | 117 | Cc1cc(C#N)cc(C(=O)Nc2ccc(F)c(F)c2)n1 [Example 42, 4-Cyano-6-methyl-pyridine-2-carboxylic acid (3,4-difluoro-phenyl)-amide]
7 | 160 | 9 | Cc1cccc(NC(=O)c2cc(C#N)cc(C)n2)c1 [Example 43, 4-Cyano-6-methyl-pyridine-2-carboxylic acid m-tolylamide]
8 | 167 | 42 | Cc1cc(C#N)cc(C(=O)Nc2cccc(C(F)(F)F)c2)n1 [Example 44, 4-Cyano-6-methyl-pyridine-2-carboxylic acid (3-trifluoromethyl-phenyl)-amide]
9 | 189 | 57 | COc1cccc(NC(=O)c2cc(C#N)cc(C)n2)c1 [Example 45, 4-Cyano-6-methyl-pyridine-2-carboxylic acid (3-methoxy-phenyl)-amide]
10 | 232.5 | 111 | N#Cc1cc(CO)nc(C(=O)Nc2ccc(F)cn2)c1 [Example 46, 4-Cyano-6-hydroxymethyl-pyridine-2-carboxylic acid (5-fluoro-pyridin-2-yl)-amide]
11 | 243.5 | 18 | Cc1cccc(NC(=O)c2cc(C#N)cc(C)n2)n1 [Example 47, 4-Cyano-6-methyl-pyridine-2-carboxylic acid (6-methyl-pyridin-2-yl)-amide]
12 | 246.5 | 33 | Cc1cc(C#N)cc(C(=O)Nc2ccnc(F)c2)n1 [Example 48, 4-Cyano-6-methyl-pyridine-2-carboxylic acid (2-fluoro-pyridin-4-yl)-amide]
13 | 177 | 72 | Cc1cc(C#N)cc(C(=O)Nc2ccc(F)c(C)c2)n1 [Example 49, 4-Cyano-6-methyl-pyridine-2-carboxylic acid (4-fluoro-3-methyl-phenyl)-amide]
14 | 302 | 99 | Cc1cc(NC(=O)c2cc(C#N)cc(C)n2)ccn1 [Example 50, 4-Cyano-6-methyl-pyridine-2-carboxylic acid (2-methyl-pyridin-4-yl)-amide]
15 | 95 | 97 | Cc1cccc(NC(=O)c2cc(Cl)cc(C)n2)c1 [Example 51, 4-Chloro-6-methyl-pyridine-2-carboxylic acid m-tolylamide]
